Series [1] deals with T1, cALDH-I (Rattus norvegicus, UniProt P51647).
T1 construct: His tag (pTrcHis vector) (N); made in house; host or cells: E. coli BL-21
T1 sequence (P51647 1-501): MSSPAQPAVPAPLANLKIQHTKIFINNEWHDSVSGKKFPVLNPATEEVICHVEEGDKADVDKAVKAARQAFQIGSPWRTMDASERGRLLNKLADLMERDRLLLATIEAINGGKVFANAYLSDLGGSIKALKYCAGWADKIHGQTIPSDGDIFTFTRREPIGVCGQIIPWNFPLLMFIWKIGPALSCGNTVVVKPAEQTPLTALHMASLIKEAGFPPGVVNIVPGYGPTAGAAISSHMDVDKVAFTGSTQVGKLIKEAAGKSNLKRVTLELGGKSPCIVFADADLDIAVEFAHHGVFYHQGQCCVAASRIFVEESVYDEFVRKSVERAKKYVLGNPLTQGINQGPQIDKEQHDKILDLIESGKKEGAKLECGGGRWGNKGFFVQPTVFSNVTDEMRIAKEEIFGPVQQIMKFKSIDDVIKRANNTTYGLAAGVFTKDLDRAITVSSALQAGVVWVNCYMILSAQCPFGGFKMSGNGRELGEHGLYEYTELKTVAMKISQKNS
Type of series: binding.

For series [2] the following is noted: pH 8.
Series [3] has as its target T1, cALDH-I. The series is classed as biochemical.
Series [4] deals with rat testis proteome. Type of series: binding.
The target in series [5] is T1, cALDH-I. The conditions noted are these: read-out: Michealis constant Km, reported literature value; cited from earlier work.

SMILES strings stand for the structures. Where two headings read alike, the source gives them in different places.

On to `CCCCCCCCOS(=O)(=O)c1ccccn1` [Sulfonate 15, 1-(2-Pyridylsulfonyl)oxo-octane], for which the “blocking of the labeling of cALDH-I by 1” value in series [1] is listed as “effectively blocked the labeling of cALDH-I by 1”. For the same molecule, the “stability in reaction buffer” value in series [2] is recorded as “stable to the assay conditions employed”. Moreover, in series [3], the “average Kobs/[I]” value is given as “(9.7+1.8)×10^3 M^−min^−”, the “cALDH-I inactivation (in words)” value is “completely inactivated” and the “effect of NAD^+ on inactivation of cALDH-I by 15” value is reported as “completely protected the enzyme from inactivation”.

Regarding `O=C(CCCCCCCCCOS(=O)(=O)c1ccc2ccccc2c1)NCCCCCNC(=O)CCCCC1SCC2NC(=O)NC21` (stereo not drawn) [sulfonate 10, 10-((2-Naphthalenesulfonyl)oxo)-N-biotinamidopentyldecanamide], the “specific (heat-sensitive) proteome reactivity” value in series [4] is “specifically labeled one 55 kDa protein”.

For the molecule `Cc1ccc(S(=O)(=O)OCCCCCCCCCC(=O)NCCCCCNC(=O)CCCCC2SCC3NC(=O)NC32)cc1` (stereo not drawn) [sulfonate 3, 10-((p-Toluenesulfonyl)oxo)-N-biotinamidopentyldecanamide], the “specific (heat-sensitive) proteome reactivity” value in series [4] is recorded as “specifically labeled one 55 kDa protein”.

For `O=C(CCCCCCCCCOS(=O)(=O)c1cccs1)NCCCCCNC(=O)CCCCC1SCC2NC(=O)NC21` (stereo not drawn) [sulfonate 11], the “specific (heat-sensitive) proteome reactivity” value in series [4] is “reacted specifically with a 55 kDa protein, as well as two additional proteins poorly labeled by the other reagents”.

As usually defined, the Km is the concentration of substrate that gives half-maximal velocity. On to `CCC=O` [propionaldehyde, reference compound], for which the Km in series [3] (read-out: Michealis constant Km) is 4.2 µM; in series [5] it was 6.5 µM.

On to `CCCCCCCCOS(C)(=O)=O` [sulfonate 17, 1-(Methanesulfonyl)oxo-octane], for which the “blocking of the labeling of cALDH-I by 1” value in series [1] was “did not block the labeling of cALDH-I by 1”. In addition, in series [3], the “% Activity Remaining” value was 100% and the “cALDH-I inactivation (in words)” value is given as “no inhibition”.

In the case of `O=C(CCCCCCCCCOS(=O)(=O)c1ccccc1)NCCCCCNC(=O)CCCCC1SCC2NC(=O)NC21` (stereo not drawn) [sulfonate 2, 10-((Benzenesulfonyl)oxo)-N-biotinamidopentyldecanamide], in series [4], the “specific (heat-sensitive) proteome reactivity” value was “reacted with three of the four proteins labeled by 4 and 5”.

For the molecule `COc1ccc(S(=O)(=O)OCCCCCCCCCC(=O)NCCCCCNC(=O)CCCCC2SCC3NC(=O)NC32)cc1` (stereo not drawn) [sulfonate 4, 10-((4-Methoxybenzenesulfonyl)oxo)-N-biotinamidopentyldecanamide], in series [4], the “nonspecific (heat-insensitive) reactivity with the preheated proteome” value was “showed significant additional reactivity with the preheated proteome” and the “specific (heat-sensitive) proteome reactivity” value is given as “labeled four members of the proteome in a heat-sensitive manner”.

For the molecule `CCOS(=O)(=O)c1ccccn1` [sulfonate 16, 1-(2-Pyridylsulfonyl)oxo-ethane], the “blocking of the labeling of cALDH-I by 1” value in series [1] is given as “did not block the labeling of cALDH-I by 1”. In addition, in series [3], the “% Activity Remaining” value is 42%; the “Kobs/[I]” value worked out at 0.00417 M⁻¹ s⁻¹; the “cALDH-I inactivation (in words)” value is given as “weak”; the “second order inhibition rate constant, times lower than that determined for 15” value was 40000 times.

As to `O=C(CCCCCCCCCOS(=O)(=O)c1ccc([N+](=O)[O-])cc1)NCCCCCNC(=O)CCCCC1SCC2NC(=O)NC21` (stereo not drawn) [sulfonate 8, 10-((4-Nitrobenzenesulfonyl)oxo)-N-biotinamidopentyldecanamide], in series [4], the “specific (heat-sensitive) proteome reactivity” value is reported as “reacted specifically with a 55 kDa protein, as well as two additional proteins poorly labeled by the other reagents”.

For `CCCCS(=O)(=O)OCCCCCCCCCC(=O)NCCCCCNC(=O)CCCCC1SCC2NC(=O)NC21` (stereo not drawn) [sulfonate 6, 10-((Butylsulfonyl)oxo)-N-biontinamidopentyldecanamide], in series [4], the “specific (heat-sensitive) proteome reactivity” value is “specifically labeled one 55 kDa protein”.

As to `CS(=O)(=O)OCCCCCCCCCC(=O)NCCCCCNC(=O)CCCCC1SCC2NC(=O)NC21` (stereo not drawn) [sulfonate 5, 10-((Methylsulfonyl)oxo)-N-biotinamidopentyldecanamide], in series [4], the “nonspecific (heat-insensitive) reactivity with the preheated proteome” value is “showed significant additional reactivity with the preheated proteome” and the “specific (heat-sensitive) proteome reactivity” value was “labeled four members of the proteome in a heat-sensitive manner”.

As for `O=C(CCCCCCCCCOS(=O)(=O)c1cccc2cccnc12)NCCCCCNC(=O)CCCCC1SCC2NC(=O)NC21` (stereo not drawn) [sulfonate 9, 10-((8-Quinolinesulfonyl)oxo)-N-biotinamidopentyldecanamide], the “specific (heat-sensitive) proteome reactivity” value in series [4] is given as “reacted specifically with a 55 kDa protein, as well as two additional proteins poorly labeled by the other reagents”.

For the molecule `O=C(CCCCCCCCCOS(=O)(=O)c1ccccn1)NCCCCCNC(=O)CCCC[C@@H]1SC[C@@H]2NC(=O)N[C@@H]21` [sulfonate 1, 10-((2-pyridylsulfonyl)oxo)-N-biotinamidopentyldecanamide], the “specific (heat-sensitive) proteome reactivity” value in series [4] was “labeled a 55 kDa protein and a 31 kDa protein”.

The values are drawn from patent US20050287594A1 (priority 2000, published 2005).
